Assay results: paper PMC9697446 (International Journal of Molecular Sciences, 2022)

Legend:
[1] = Oxygen radical absorbance capacity assay (ORAC-FL); settings: Trolox equivalent, Trolox = 1; means ± SEM (n = 3)
Description: The method is based on the measurement of the fluorescence intensity characterizing the degree of destruction of the fluorescence probe under the action of peroxyl radicals.
The peroxyl radical scavenging capacity of the test compounds was characterized in terms of the Trolox equivalent (TE), which is equal to the ratio of the Trolox concentration to the concentration of a test compound when they show equal fluorescence intensities in the assay. The peroxyl radical scavenging capacity of Trolox was set as 1 [67, 68].
2,2´-Azobis(amidinopropane) dihydrochloride (AAPH), (±)-6-hydroxy-2,5,7,8-tetramethylchroman-2-carboxylic acid (Trolox), and fluorescein (FL) were purchased from Sigma-Aldrich. The reaction was carried out at 37 °C in 75 mM K,Na phosphate buffer (pH 7.4), and the final reaction mixture was 200 µL. The test compounds and the Trolox standard were dissolved in DMSO to 10 mM and further diluted in a 75 mM K,Na phosphate buffer (pH 7.4). The final concentrations were 0.1–1 µM for the test compounds and 1–6 µM for the Trolox. The blank was composed of 20 µL of a 75 mM K,Na phosphate buffer (pH 7.4) containing 20% (v/v) DMSO, 120 µL of FL and 60 µL of AAPH, and it was added in each assay. The antioxidant (20 µL) and FL (120 µL, final concentration: 70 nM) solutions were placed in a black 96-well microplate and were preincubated for 15 min at 37 °C. A solution of AAPH (60 µL, final concentration: 12 mM) was then added rapidly using a multichannel pipette. The microplate was immediately placed in the reader, and the fluorescence was recorded every minute for 100 min. The microplate was automatically shaken prior to each reading. The Trolox standard curve was also obtained in each assay. All reactions were carried out in triplicate, and at least three different assays were performed for each sample.
The antioxidant curves (fluorescence vs. time) were first normalized to the curve of the blank (without the antioxidant) corresponding to the same assay, and the area under the fluorescence decay curve (AUC) was calculated. The net AUC corresponding to a sample was calculated by subtracting the AUC corresponding to the blank. Regression equations were calculated by plotting the net AUC against the antioxidant concentration. The ORAC Tolox equivalent value (TE) was obtained by dividing the slope of the latter curve by the slope of the Trolox curve obtained in the same assay. The ability of Trolox to scavenge the peroxyl radical was equal to 1 [64, 65]. […] The data are expressed as means ± SEM.

[2] = ABTS radical cation scavenging assay; settings: 1 h incubation, means ± SEM (n = 3); for IC50: 50% reduction of ABTS radical; for ABTS Scavenging Activity, TEAC Value: Trolox equivalent antioxidant capacity
Protocol: The ABTS assay is based on the direct binding of a model ABTS radical cation (2,2′-azino-bis-(3-ethylbenzothiazoline-6-sulfonate), ABTS^•+) by antioxidants. The measurements were performed as previously described in detail.
The radical scavenging activity was expressed as TEAC values (Trolox equivalent antioxidant capacity) and determined as the ratio between the slopes obtained from the linear correlation of the ABTS radical absorbance with the concentrations of the test compounds and Trolox.
The radical scavenging activity of the compounds was assessed using an ABTS radical decolorization assay. The procedure followed the reported protocol with minor modifications. ABTS (2,2ʹ-azino-bis-(3-ethylbenzothiazoline-6-sulfonic acid) diammonium salt) was purchased from TCI (Tokyo, Japan), while potassium persulfate (di-potassium peroxodisulfate), Trolox (6-hydroxy-2,5,7,8-tetramethylchroman-2-carboxylic acid), catechol, and DMSO were received from Sigma-Aldrich Chemical Co. (St. Louis, MO, USA). The ethanol was HPLC grade. Aqueous solutions were prepared using deionized water.
Trolox was used as the standard reference compound. Catechol was used as the positive control. All test and reference compounds were dissolved in DMSO. The final concentration of DMSO in the reaction mixture was 4% (v/v).
The solution of ABTS radical cation (ABTS^•+) was produced by mixing a 7 mM ABTS stock solution with a 2.45 mM aqueous solution of potassium persulfate in equal quantities and allowing them to react for 12–16 h at room temperature in the dark. At the time of activity determination, the ABTS^•+ solution was diluted with ethanol to adjust it to an absorbance value of about 0.80 ± 0.05 at 734 nm. A fresh working solution of ABTS^•+ was prepared for each assay.
The radical scavenging capacity of the compounds was analyzed by mixing 10 μL of test compound with 240 μL of ABTS^•+ working solution. The reduction in absorbance was measured spectrophotometrically at 734 nm using an xMark microplate UV/VIS spectrophotometer (Bio-Rad, Hercules, CA, USA). The reaction was monitored for an hour at 10 min intervals. Data were given for 1 h of incubation of compounds with ABTS^•+. EtOH blanks were run in each assay. The results were obtained from three replicates of each sample and three independent experiments.
The antioxidant capacity as a Trolox equivalent (TEAC values) was determined as the ratio between the slopes obtained from the linear correlation of concentrations of test compounds and Trolox with absorbance of ABTS radical.

EeAChE PAS = target: T1, EeAChE PAS (Electrophorus electricus, UniProt O42275); test: biochemical; type: binding; settings: EeAChE 7 µM, PI 8 µM, means ± SEM (n = 3); for inhibition at 3 µM: compound 3 µM, read-out: PI Displacement, 3 µM; for inhibition at 20 µM: compound 20 µM, read-out: PI Displacement, 20 µM
T1 construct: purchased Sigma-Aldrich type VI-S
Protocol: (§1) PIand donepezil were purchased from Sigma-Aldrich. […] As the source of the enzyme, electric eel (Elecrophorus electricus) AChE (EeAChE, type VI-S, lyophilized powder, Sigma-Aldrich, Saint Louis, MO, USA) was used. The applicability of this enzyme was shown earlier
To determine the percentage of displacement of PI from the EeAChE PAS, EeAChE (with a final concentration of 7 μM) was incubated with the test compound at a concentration of 3 and 20 μM in 1 mM Tris-HCl buffer pH 8.0, 25 °C for 15 min. Next, PIsolution (with a final concentration of 8 μM) was added, the samples were incubated for 15 min, and the fluorescence spectrum (530 nm (exc.) and 600 nm (emiss.)) was taken. Donepezil and decamethonium were used as reference compounds. The blank contained PI of the same concentration in 1 mM Tris-HCl buffer pH 8.0. The measurements were carried out in triplicate on a FLUOStar Optima microplate reader).
The percentage of displacement of PIfrom the peripheral anionic site of AChE was calculated using the following formula:% Displacement = 100 − (IFAChE+Propidium+inhibitor/IFAChE+Propidium) × 100,(1) where IFAChE+Propidium is the fluorescence intensity of the propidium associated with AChE in the absence of the test compound (taken as 100%) and IFAChE+Propidium+inhibitor is the fluorescence intensity of the propidium associated with AChE in the presence of the test compound.

equine serum BChE = target: T2, equine serum BChE (Equus caballus, UniProt P81908); test: biochemical; settings: IC50 ± SEM, n = 3
T2 construct: the equine serum BChE, and the porcine liver CES; purchased Sigma-Aldrich; host or cells: equine serum
Protocol: (§2) The esterase profile was estimated using the human erythrocyteAChE, the equine serum BChE, and the porcine liver CES.
(§3) Human erythrocyte AChE, equine serum BChE, porcine liver CES, acetylthiocholine iodide (ATCh), butyrylthiocholine iodide (BTCh), 5,5′-dithio-bis-(2-nitrobenzoic acid) (DTNB), 4-nitrophenol acetate (4-NPA), and BNPP were purchased from Sigma-Aldrich (St. Louis, MO, USA).
(§4) AChE and BChE activities were measured via the Ellman method. The assay solution consisted of 0.1 M K/Na phosphate buffer pH 7.5, 25 °C with the addition of 0.33 mM DTNB, 0.02 unit/mL of AChE or BChE and 1 mM of substrate (ATCh or BTCh, respectively). The assays were carried out with a reagent blank containing all components (except AChE orBChE) in order to account for the non-enzymatic hydrolysis of the substrate. In addition, an enzyme blank was included that contained all components except substrate to account for non-substrate sulfhydryl groups.
(§5) The test compounds were dissolved in DMSO, and the incubation mixture contained 2% (v/v) of the solvent. Enzyme inhibition was first assessed at a single concentration of 20 µM for each compound after a 5 min incubation at 25 °C in three separate experiments. […] The test compounds were added to the assay solution and preincubated at 25 °C with the enzymes for 5 min, followed by the addition of substrate. A parallel control was made for the assay solution with no inhibitor. Measurements were performed with a FLUOStar Optima microplate reader (BMG Labtech, Ortenberg, Germany). Each experiment was performed in triplicate. The results were expressed as the mean ± SEM. The reaction rates in the presence and absence of the inhibitor were compared, and the percent of residual enzyme activity due to the presence of test compounds was calculated.

human erythrocyte AChE = target: T3, human erythrocyte AChE (Homo sapiens, UniProt P22303); test: biochemical; settings: IC50 ± SEM, n = 3
T3 construct: The esterase profile was estimated using the human erythrocyteAChE; purchased Sigma-Aldrich; host or cells: human erythrocytes
Protocol: as §2, §3, §4, §5

porcine liver CES = test: CES inhibition (4-nitrophenyl acetate hydrolysis); type: biochemical; settings: ± SEM, n = 3;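 further: values are percent inhibition of CES activity not residual activity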
Protocol: as §2, §3
The assay solution consisted of 0.1 M K/Na phosphate buffer pH 8.0, 25 °C, with the addition of 1 mM 4-nitrophenyl acetate and 0.02 unit/mL of CES. The assays were carried out with a blank containing all components, except CES.
as §5

EeAChE = target: T4, EeAChE (Electrophorus electricus, UniProt O42275); test: biochemical; settings: means ± SEM (n = 3); read-out: EeAChE Inhibition, IC50
T4 construct: purchased Sigma-Aldrich type VI-S
Protocol: We selected AChE from electric eels (Electrophorus electricus) for consistency with our other reports and because of its purity, specific activity, and lower cost compared to human AChE [64].
as §4, §5, §1

T1 sequence (O42275 24-633): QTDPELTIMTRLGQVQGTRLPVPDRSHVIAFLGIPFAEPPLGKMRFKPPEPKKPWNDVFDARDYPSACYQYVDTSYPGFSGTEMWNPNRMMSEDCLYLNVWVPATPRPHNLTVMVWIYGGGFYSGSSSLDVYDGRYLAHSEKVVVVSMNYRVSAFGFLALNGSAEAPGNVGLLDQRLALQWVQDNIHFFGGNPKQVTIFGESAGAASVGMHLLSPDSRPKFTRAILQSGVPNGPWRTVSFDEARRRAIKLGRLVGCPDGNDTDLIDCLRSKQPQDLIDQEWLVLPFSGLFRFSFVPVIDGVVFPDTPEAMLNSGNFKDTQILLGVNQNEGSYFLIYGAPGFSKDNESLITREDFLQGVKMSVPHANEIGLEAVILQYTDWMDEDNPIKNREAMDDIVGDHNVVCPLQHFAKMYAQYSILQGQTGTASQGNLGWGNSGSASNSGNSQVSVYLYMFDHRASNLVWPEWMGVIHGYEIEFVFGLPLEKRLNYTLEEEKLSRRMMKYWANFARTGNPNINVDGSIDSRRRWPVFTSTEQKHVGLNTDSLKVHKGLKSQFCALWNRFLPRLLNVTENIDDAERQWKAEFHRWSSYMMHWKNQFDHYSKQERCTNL
T4 sequence (O42275 24-633): as above
T2 sequence (P81908 whole entry): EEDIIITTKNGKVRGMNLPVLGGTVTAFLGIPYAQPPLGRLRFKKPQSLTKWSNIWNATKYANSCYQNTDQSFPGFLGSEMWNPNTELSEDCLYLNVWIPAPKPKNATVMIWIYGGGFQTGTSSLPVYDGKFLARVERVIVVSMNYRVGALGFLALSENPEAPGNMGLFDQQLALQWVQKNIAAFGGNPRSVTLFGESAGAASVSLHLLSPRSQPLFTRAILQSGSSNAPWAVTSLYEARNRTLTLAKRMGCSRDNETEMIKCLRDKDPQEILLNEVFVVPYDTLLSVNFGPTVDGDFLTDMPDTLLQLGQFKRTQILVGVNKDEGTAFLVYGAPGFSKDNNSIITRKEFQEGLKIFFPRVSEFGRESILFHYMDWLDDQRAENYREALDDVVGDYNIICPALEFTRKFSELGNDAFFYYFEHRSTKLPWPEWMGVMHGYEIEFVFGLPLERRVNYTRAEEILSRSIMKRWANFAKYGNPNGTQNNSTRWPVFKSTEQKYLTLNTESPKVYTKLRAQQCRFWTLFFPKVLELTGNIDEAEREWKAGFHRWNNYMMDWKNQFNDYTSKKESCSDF
T3 sequence (P22303 32-617 isoform P22303-2 limits assumed): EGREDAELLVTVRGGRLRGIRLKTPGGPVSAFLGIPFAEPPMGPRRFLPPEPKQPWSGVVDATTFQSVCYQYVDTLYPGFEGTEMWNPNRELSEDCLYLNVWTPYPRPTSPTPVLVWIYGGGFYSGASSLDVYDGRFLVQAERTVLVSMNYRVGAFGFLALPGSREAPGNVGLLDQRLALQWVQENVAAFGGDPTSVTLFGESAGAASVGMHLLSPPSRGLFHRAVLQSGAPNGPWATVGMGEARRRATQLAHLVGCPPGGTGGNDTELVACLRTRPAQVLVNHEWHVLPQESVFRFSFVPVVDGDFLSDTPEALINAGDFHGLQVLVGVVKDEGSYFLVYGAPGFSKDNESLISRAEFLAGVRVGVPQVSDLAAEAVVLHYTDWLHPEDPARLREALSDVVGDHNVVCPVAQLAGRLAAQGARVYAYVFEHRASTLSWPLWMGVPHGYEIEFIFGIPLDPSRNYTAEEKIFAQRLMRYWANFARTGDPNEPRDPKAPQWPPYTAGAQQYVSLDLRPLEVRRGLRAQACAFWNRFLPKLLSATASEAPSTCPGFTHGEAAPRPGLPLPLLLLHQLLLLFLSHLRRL

Structure (SMILES)	ORAC, TE Value [1]	IC50 [2]	ABTS Scavenging Activity, TEAC Value [2]	inhibition at 3 µM (EeAChE PAS)	inhibition at 20 µM (EeAChE PAS)	IC50 (equine serum BChE)	IC50 (human erythrocyte AChE)	CES inhibition at 20 µM (porcine liver CES)	IC50 (EeAChE)
Oc1ccccc1O [Catechol, catechol, reference compound]	6.6 ± 0.2	16.7 ± 1.2 µM	1.20 ± 0.11	–	–	–	–	–	–
CC1CCc2c(c3cc(C(F)(F)F)ccc3n2CCC(=O)N2c3ccc(N(C)C)cc3Sc3cc(N(C)C)ccc32)C1 (stereo not shown) [Compound 4g]	6.5 ± 0.1	30.8 ± 2.9 µM	0.70 ± 0.04	20.9 ± 1.3%	32.8 ± 0.7%	20.3 ± 0.21 µM	3.56 ± 0.09 µM	1.4 ± 0.2%	0.8 ± 0.05 µM
CN(C)c1ccc2c(c1)Sc1cc(N(C)C)ccc1N2C(=O)CCn1c2c(c3cc(OC(F)(F)F)ccc31)CCCCC2 [Compound 4l]	8.4 ± 0.8	20.7 ± 1.7 µM	0.98 ± 0.09	14.9 ± 0.1%	17 ± 1.2%	42.2 ± 2.93 µM	15 ± 1.12 µM	7.6 ± 0.8%	3.4 ± 0.21 µM
Cc1c(C)c2c(c(C)c1O)CCC(C)(C(=O)O)O2 (stereo not shown) [Trolox, 6-hydroxy-2,5,7,8-tetramethylchroman-2-carboxylic acid, reference compound]	1.00	20.4 ± 1.7 µM	1.00	–	–	–	–	–	–
c1ccc2c(c1)[nH]c1ccccc12 [carbazole, reference compound]	–	–	–	–	–	–	–	9.4 ± 1.0%	–
